# From article PMC5218480 (PLoS ONE, 2017)
# Test system: MV-4-11 cells
# Experiment: Gene expression microarray analysis (Affymetrix PrimeView) and GSEA
# Format: cell-based, human
# Design: RFU PODN (11730768_x_at) / Fold change /veh PODN (11730768_x_at) / RFU LINC00158 (11744669_a_at) / Fold change /veh LINC00158 (11744669_a_at) / RFU DUSP10 (11751237_a_at) / Fold change /veh DUSP10 (11751237_a_at) / RFU ID3 (11757404_x_at) / Fold change /veh ID3 (11757404_x_at) / RFU PLEKHG5 (11737974_s_at) / Fold change /veh PLEKHG5 (11737974_s_at) / RFU LRRC4B (11730491_at) / Fold change /veh LRRC4B (11730491_at) / RFU GIMAP4 (11747438_a_at) / Fold change /veh GIMAP4 (11747438_a_at) / RFU KRT8 (11758183_x_at) / Fold change /veh KRT8 (11758183_x_at) / RFU CNN1 (11734310_a_at) / Fold change /veh CNN1 (11734310_a_at) / RFU VPS37D (11726825_at) / Fold change /veh VPS37D (11726825_at) / RFU C10orf10 (11716522_x_at) / Fold change /veh C10orf10 (11716522_x_at) / RFU KIR2DL2 /// KIR2DL4 /// KIR2DL5A /// KIR2DL5B /// KIR2DS1 /// KIR2DS2 /// KIR2DS3 /// KIR2DS4 /// KIR3DL3 /// KIR3DL3 /// KIR3DS1 (11738374_at) / Fold change /veh KIR2DL2 /// KIR2DL4 /// KIR2DL5A /// KIR2DL5B /// KIR2DS1 /// KIR2DS2 /// KIR2DS3 /// KIR2DS4 /// KIR3DL3 /// KIR3DL3 /// KIR3DS1 (11738374_at) / RFU C1QL1 (11718748_at) / Fold change /veh C1QL1 (11718748_at) / RFU TMPRSS4 (11747572_a_at) / Fold change /veh TMPRSS4 (11747572_a_at) / RFU HAMP (11756126_x_at) / Fold change /veh HAMP (11756126_x_at) / RFU RNFT2 (11725882_a_at) / Fold change /veh RNFT2 (11725882_a_at) / RFU NR4A2 (11747474_a_at) / Fold change /veh NR4A2 (11747474_a_at) / RFU ABCC12 (11746883_a_at) / Fold change /veh ABCC12 (11746883_a_at) / RFU TMEM136 (11760407_x_at) / Fold change /veh TMEM136 (11760407_x_at) / RFU CLDN22 /// WWC2 (11732394_at) / Fold change /veh CLDN22 /// WWC2 (11732394_at) / RFU HLA-DPB1 (11760878_x_at) / Fold change /veh HLA-DPB1 (11760878_x_at) / RFU SPINT1 (11716480_a_at) / Fold change /veh SPINT1 (11716480_a_at) / RFU GAP43 (11754022_s_at) / Fold change /veh GAP43 (11754022_s_at) / RFU A4GNT (11735810_at) / Fold change /veh A4GNT (11735810_at) / RFU PRB3 (11715151_x_at) / Fold change /veh PRB3 (11715151_x_at) / RFU TUBB4B (11761932_at) / Fold change /veh TUBB4B (11761932_at) / RFU CAPN14 (11732068_a_at) / Fold change /veh CAPN14 (11732068_a_at) / RFU TMCC2 (11721928_a_at) / Fold change /veh TMCC2 (11721928_a_at) / RFU IRGQ (11745062_a_at) / Fold change /veh IRGQ (11745062_a_at) / RFU FAM174B (11720279_a_at) / Fold change /veh FAM174B (11720279_a_at) / RFU TMPRSS4 (11748680_a_at) / Fold change /veh TMPRSS4 (11748680_a_at) / RFU FAM212B (11763350_a_at) / Fold change /veh FAM212B (11763350_a_at) / RFU PLEKHG5 (11743358_a_at) / Fold change /veh PLEKHG5 (11743358_a_at) / RFU ZSCAN30 (11745921_a_at) / Fold change /veh ZSCAN30 (11745921_a_at) / RFU CMKLR1 (11741424_a_at) / Fold change /veh CMKLR1 (11741424_a_at) / RFU LOC101060620 /// MAPK8IP1 (11723275_at) / Fold change /veh LOC101060620 /// MAPK8IP1 (11723275_at) / RFU SPTSSB (11747773_x_at) / Fold change /veh SPTSSB (11747773_x_at) / RFU PRSS12 (11739890_at) / Fold change /veh PRSS12 (11739890_at) / RFU BIN1 (11741810_x_at) / Fold change /veh BIN1 (11741810_x_at) / RFU WNT11 (11732464_a_at) / Fold change /veh WNT11 (11732464_a_at) / RFU C10orf10 (11716521_a_at) / Fold change /veh C10orf10 (11716521_a_at) / RFU C5orf56 (11738089_at) / Fold change /veh C5orf56 (11738089_at) / RFU CYB561 (11721691_x_at) / Fold change /veh CYB561 (11721691_x_at) / RFU ANKRD19P (11752326_a_at) / Fold change /veh ANKRD19P (11752326_a_at) / RFU OR2T12 /// OR2T33 /// OR2T8 (11738714_s_at) / Fold change /veh OR2T12 /// OR2T33 /// OR2T8 (11738714_s_at) / RFU VCAN (11748164_a_at) / Fold change /veh VCAN (11748164_a_at) / RFU JSRP1 (11732532_at) / Fold change /veh JSRP1 (11732532_at) / RFU KRTAP10-11 (11738290_x_at) / Fold change /veh KRTAP10-11 (11738290_x_at) / RFU MYO3A (11730013_a_at) / Fold change /veh MYO3A (11730013_a_at) / RFU EBF3 (11725865_a_at) / Fold change /veh EBF3 (11725865_a_at) / RFU CAMK2N1 (11719241_x_at) / Fold change /veh CAMK2N1 (11719241_x_at) / RFU C5orf56 (11738088_a_at) / Fold change /veh C5orf56 (11738088_a_at) / RFU OLFML3 (11715873_a_at) / Fold change /veh OLFML3 (11715873_a_at) / RFU LOC100653217 /// NTM (11731650_a_at) / Fold change /veh LOC100653217 /// NTM (11731650_a_at) / RFU MAPK11 (11762145_a_at) / Fold change /veh MAPK11 (11762145_a_at) / RFU FIZ1 (11724087_x_at) / Fold change /veh FIZ1 (11724087_x_at) / RFU OASL (11726364_x_at) / Fold change /veh OASL (11726364_x_at) / RFU SOX15 (11748057_x_at) / Fold change /veh SOX15 (11748057_x_at) / RFU CD79A (11719716_a_at) / Fold change /veh CD79A (11719716_a_at) / RFU HIST1H1D (11736915_at) / Fold change /veh HIST1H1D (11736915_at) / RFU CASKIN2 (11723855_a_at) / Fold change /veh CASKIN2 (11723855_a_at) / RFU LOC730098 (11760151_x_at) / Fold change /veh LOC730098 (11760151_x_at) / RFU OR4N2 (11742367_at) / Fold change /veh OR4N2 (11742367_at) / RFU PRRT2 (11749266_a_at) / Fold change /veh PRRT2 (11749266_a_at) / RFU SNX32 (11753110_a_at) / Fold change /veh SNX32 (11753110_a_at) / RFU CDHR5 (11726645_a_at) / Fold change /veh CDHR5 (11726645_a_at) / RFU RCAN1 (11760418_a_at) / Fold change /veh RCAN1 (11760418_a_at) / RFU FAM167A (11723789_a_at) / Fold change /veh FAM167A (11723789_a_at) / RFU FAM26E (11764081_at) / Fold change /veh FAM26E (11764081_at) / RFU ISYNA1 (11749810_s_at) / Fold change /veh ISYNA1 (11749810_s_at) / RFU ACY1 (11761880_at) / Fold change /veh ACY1 (11761880_at) / RFU 11764098_at / Fold change /veh 11764098_at / RFU SAMD14 (11745864_x_at) / Fold change /veh SAMD14 (11745864_x_at) / RFU NPB (11741838_a_at) / Fold change /veh NPB (11741838_a_at) / RFU TMPRSS6 (11731388_a_at) / Fold change /veh TMPRSS6 (11731388_a_at) / RFU KRTAP10-2 (11738614_at) / Fold change /veh KRTAP10-2 (11738614_at) / RFU ARHGAP8 /// PRR5-ARHGAP8 (11727945_x_at) / Fold change /veh ARHGAP8 /// PRR5-ARHGAP8 (11727945_x_at) / RFU KRTAP5-7 /// NADSYN1 (11734609_at) / Fold change /veh KRTAP5-7 /// NADSYN1 (11734609_at) / RFU RASL12 (11751679_a_at) / Fold change /veh RASL12 (11751679_a_at) / RFU CDKN2B (11736163_a_at) / Fold change /veh CDKN2B (11736163_a_at) / RFU PRF1 (11729649_at) / Fold change /veh PRF1 (11729649_at) / RFU, ZNF638 /// ZNF638-IT1 / Fold change vs veh, ZNF638 /// ZNF638-IT1 / RFU, PANK3 / Fold change vs veh, PANK3 / RFU, SH3YL1 / Fold change vs veh, SH3YL1 / RFU, ZEB2 / Fold change vs veh, ZEB2 / RFU, NRIP1 / Fold change vs veh, NRIP1 / RFU, PTTG1IP / Fold change vs veh, PTTG1IP / RFU, CAPN2 / Fold change vs veh, CAPN2 / RFU, MED14 / Fold change vs veh, MED14 / RFU, SNORA58 / Fold change vs veh, SNORA58 / RFU, C1orf63 / Fold change vs veh, C1orf63 / RFU, LRRFIP1 / Fold change vs veh, LRRFIP1 / RFU, NDUFAF7 / Fold change vs veh, NDUFAF7 / RFU, SLC12A2 / Fold change vs veh, SLC12A2 / RFU, IBTK / Fold change vs veh, IBTK / RFU, ESF1 / Fold change vs veh, ESF1 / Fold change vs veh, TMEM50B / RFU, TAOK1 / Fold change vs veh, TAOK1 / RFU, ACBD3 / Fold change vs veh, ACBD3 / RFU, TMA16 / Fold change vs veh, TMA16 / RFU, RWDD3 / Fold change vs veh, RWDD3 / RFU, BCAT1 / Fold change vs veh, BCAT1 / RFU, EDEM3 / Fold change vs veh, EDEM3 / RFU, TMEM33 / Fold change vs veh, TMEM33 / RFU, WDR75 / Fold change vs veh, WDR75 / RFU, AHCTF1 / Fold change vs veh, AHCTF1 / RFU, TFRC / Fold change vs veh, TFRC / RFU, ZDHHC17 / Fold change vs veh, ZDHHC17 / RFU, NOM1 / Fold change vs veh, NOM1 / RFU, ARL8B / Fold change vs veh, ARL8B / RFU, ZBTB11 / Fold change vs veh, ZBTB11 / RFU, TAMM41 / Fold change vs veh, TAMM41 / RFU, KIAA1704 /// LOC100996395 / Fold change vs veh, KIAA1704 /// LOC100996395 / RFU, ING1 / Fold change vs veh, ING1 / RFU, TRMT61B / Fold change vs veh, TRMT61B / RFU, FUBP3 / Fold change vs veh, FUBP3 / RFU, TP53 / Fold change vs veh, TP53 / RFU, TNKS2 / Fold change vs veh, TNKS2 / RFU, ZFP14 / Fold change vs veh, ZFP14 / RFU, ACTR2 / Fold change vs veh, ACTR2 / RFU, PPP3R1 / Fold change vs veh, PPP3R1 / RFU, PIK3R1 / Fold change vs veh, PIK3R1 / RFU, HNRNPA1 / Fold change vs veh, HNRNPA1 / RFU, RNF170 / Fold change vs veh, RNF170 / RFU, ZNF28 / Fold change vs veh, ZNF28 / RFU, RNGTT / Fold change vs veh, RNGTT / RFU, OGT / Fold change vs veh, OGT / RFU, BRD1 / Fold change vs veh, BRD1 / RFU, MARS / Fold change vs veh, MARS / RFU, ZNF655 / Fold change vs veh, ZNF655 / RFU, FAHD1 / Fold change vs veh, FAHD1 / RFU, BDP1 / Fold change vs veh, BDP1 / RFU, LRRCC1 / Fold change vs veh, LRRCC1 / RFU, ARID1A / Fold change vs veh, ARID1A / RFU, ZNF146 / Fold change vs veh, ZNF146 / RFU, ZNF330 / Fold change vs veh, ZNF330 / RFU, GPN3 / Fold change vs veh, GPN3 / RFU, C9orf123 / Fold change vs veh, C9orf123 / RFU, N4BP2L2 / Fold change vs veh, N4BP2L2 / RFU, ARFIP1 / Fold change vs veh, ARFIP1 / RFU, FAM179B / Fold change vs veh, FAM179B / RFU, BCL10 / Fold change vs veh, BCL10 / RFU, UHRF1BP1L / Fold change vs veh, UHRF1BP1L / RFU, BET1 / Fold change vs veh, BET1 / RFU, CNOT2 / Fold change vs veh, CNOT2 / RFU, ZNF268 / Fold change vs veh, ZNF268 / Fold change vs veh, ZNF507 / RFU, DGCR2 / Fold change vs veh, DGCR2 / RFU, WDSUB1 / Fold change vs veh, WDSUB1 / Fold change vs veh, HSP90B1 /// MIR3652 / RFU, ADSS / Fold change vs veh, ADSS / RFU, GK / Fold change vs veh, GK / RFU, ZNF148 / Fold change vs veh, ZNF148 / RFU, TAF9 / Fold change vs veh, TAF9 / RFU, SLC1A5 / Fold change vs veh, SLC1A5 / RFU, SLMO2 / Fold change vs veh, SLMO2 / RFU, ABCC4 / Fold change vs veh, ABCC4 / RFU, LOC101060439 /// RAP1B / Fold change vs veh, LOC101060439 /// RAP1B / RFU, RFX7 / Fold change vs veh, RFX7 / RFU, GTPBP10 / Fold change vs veh, GTPBP10 / RFU, CNEP1R1 / Fold change vs veh, CNEP1R1 / RFU, BIVM-ERCC5 /// ERCC5 / Fold change vs veh, BIVM-ERCC5 /// ERCC5 / RFU, ILF3 / Fold change vs veh, ILF3 / RFU 11762660_at / Fold change /veh 11762660_at / RFU VCAN (11757783_s_at) / Fold change /veh VCAN (11757783_s_at) / RFU DDX43 (11728927_at) / Fold change /veh DDX43 (11728927_at) / RFU KRT8 (11758188_x_at) / Fold change /veh KRT8 (11758188_x_at) / RFU NKD1 (11759106_at) / Fold change /veh NKD1 (11759106_at) / RFU SRD5A1 (11742802_a_at) / Fold change /veh SRD5A1 (11742802_a_at) / RFU TPSAB1 /// TPSB2 (11721975_s_at) / Fold change /veh TPSAB1 /// TPSB2 (11721975_s_at) / RFU GSTM3 (11746129_a_at) / Fold change /veh GSTM3 (11746129_a_at) / RFU IL23R (11737362_x_at) / Fold change /veh IL23R (11737362_x_at) / RFU TMEM51 (11727254_a_at) / Fold change /veh TMEM51 (11727254_a_at) / RFU PIWIL2 (11732686_x_at) / Fold change /veh PIWIL2 (11732686_x_at) / RFU ORM1 (11744905_x_at) / Fold change /veh ORM1 (11744905_x_at) / RFU CCDC152 (11743942_at) / Fold change /veh CCDC152 (11743942_at) / RFU ECM1 (11717891_a_at) / Fold change /veh ECM1 (11717891_a_at) / RFU IL23R (11748794_a_at) / Fold change /veh IL23R (11748794_a_at) / RFU TNFAIP8L3 (11732012_x_at) / Fold change /veh TNFAIP8L3 (11732012_x_at) / RFU MBOAT4 (11741988_at) / Fold change /veh MBOAT4 (11741988_at) / RFU 11764193_at / Fold change /veh 11764193_at / RFU TMEM53 (11763286_at) / Fold change /veh TMEM53 (11763286_at) / RFU MAGEB2 (11727129_at) / Fold change /veh MAGEB2 (11727129_at) / RFU TMEM200A (11744735_a_at) / Fold change /veh TMEM200A (11744735_a_at) / RFU CCDC152 (11751479_a_at) / Fold change /veh CCDC152 (11751479_a_at) / RFU FAM211A (11726209_a_at) / Fold change /veh FAM211A (11726209_a_at) / RFU RGS16 (11746705_a_at) / Fold change /veh RGS16 (11746705_a_at) / RFU VCAN (11755009_s_at) / Fold change /veh VCAN (11755009_s_at) / RFU RHOB (11743442_s_at) / Fold change /veh RHOB (11743442_s_at) / RFU RGS16 (11720943_a_at) / Fold change /veh RGS16 (11720943_a_at) / RFU RGS16 (11720944_at) / Fold change /veh RGS16 (11720944_at) / RFU, VPS4B / Fold change vs veh, VPS4B / RFU, CREB1 / Fold change vs veh, CREB1 / RFU, DNAJC13 / Fold change vs veh, DNAJC13 / RFU, GNAQ / Fold change vs veh, GNAQ / RFU, CDK5R1 / Fold change vs veh, CDK5R1 / RFU, ZRANB3 / Fold change vs veh, ZRANB3 / RFU, CUL4A / Fold change vs veh, CUL4A / RFU, CCNY / Fold change vs veh, CCNY / RFU, UFL1 / Fold change vs veh, UFL1 / RFU, COG3 / Fold change vs veh, COG3 / RFU, DIAPH2 / Fold change vs veh, DIAPH2 / RFU, SKA2 / Fold change vs veh, SKA2 / RFU, AFF3 / Fold change vs veh, AFF3 / RFU, LMF1 / Fold change vs veh, LMF1 / RFU, IPO11 / Fold change vs veh, IPO11 / RFU, DFFB / Fold change vs veh, DFFB / RFU, FOXP1 / Fold change vs veh, FOXP1 / RFU, CARD8 / Fold change vs veh, CARD8 / RFU, STRN3 / Fold change vs veh, STRN3 / RFU, ADK / Fold change vs veh, ADK / RFU, RASSF2 / Fold change vs veh, RASSF2 / RFU, WIPF1 / Fold change vs veh, WIPF1 / RFU, LARP1B / Fold change vs veh, LARP1B / RFU, RASA1 / Fold change vs veh, RASA1 / RFU, RB1 / Fold change vs veh, RB1 / RFU, PPFIA1 / Fold change vs veh, PPFIA1 / RFU, MAT2A / Fold change vs veh, MAT2A / RFU, CCT5 / Fold change vs veh, CCT5 / RFU, WDR92 / Fold change vs veh, WDR92 / RFU, CUX1 / Fold change vs veh, CUX1 / RFU, TTC7A / Fold change vs veh, TTC7A / RFU, TMEM135 / Fold change vs veh, TMEM135 / RFU, DEPTOR / Fold change vs veh, DEPTOR / RFU, CPM / Fold change vs veh, CPM / RFU, DNAJB6 / Fold change vs veh, DNAJB6 / RFU, CACNA2D3 / Fold change vs veh, CACNA2D3 / RFU, DTX4 / Fold change vs veh, DTX4 / RFU, TFCP2 / Fold change vs veh, TFCP2 / RFU, GMCL1 /// GMCL1P1 / Fold change vs veh, GMCL1 /// GMCL1P1 / RFU, AEBP2 / Fold change vs veh, AEBP2 / RFU, SNHG1 /// SNORD22 /// SNORD25 /// SNORD26 /// SNORD27 /// SNORD28 /// SNORD29 /// SNORD31 / Fold change vs veh, SNHG1 /// SNORD22 /// SNORD25 /// SNORD26 /// SNORD27 /// SNORD28 /// SNORD29 /// SNORD31 / Fold change (Aza/veh), C12orf56 (ProbeSet 11735607_a_at) / Fold change (ACY-1035/veh), C12orf56 (ProbeSet 11735607_a_at) / Fold change (Aza/veh), FGFR1OP (ProbeSet 11751329_s_at) / Fold change (ACY-1035/veh), FGFR1OP (ProbeSet 11751329_s_at) / Fold change (Aza/veh), VPS36 (ProbeSet 11739960_a_at) / Fold change (ACY-1035/veh), VPS36 (ProbeSet 11739960_a_at) / RFU SYPL1 (11715823_x_at) / Fold change /veh SYPL1 (11715823_x_at) / RFU IGFBP7 (11715501_s_at) / Fold change /veh IGFBP7 (11715501_s_at) / RFU REEP3 (11722064_at) / Fold change /veh REEP3 (11722064_at) / RFU IGLL1 (11728026_x_at) / Fold change /veh IGLL1 (11728026_x_at): dose or concentration left out as unconfirmed
# Conditions: MV-4-11 cells, 48 hours
smiles,measurement,value
Nc1ccc(-c2cccs2)cc1NC(=O)c1ccc2c(c1)cc(C1CC1)n2CCN1CCOCC1 [ACY-1035],RFU GSTM3 (11746129_a_at),10.76 RFU
